Assay results as given in ChEMBL document CHEMBL1201862, “PubChem BioAssay data set” (2004).
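A five-concentration, 48-hour dose response in 96-well plates underlies each endpoint, interpolated linearly between surrounding concentrations. At the GI50, growth is halved.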 Calls of active or inactive are those of the source. Rule as the data show it: active = GI50 up to about 1.1 µM and inactive = higher.

Experiments:
Assay in all cases: NCI-60 cell line screen, 48 h
[1] = tested on: 786-0
[2] = tested on: A498
[3] = tested on: A549
[4] = tested on: ACHN
[5] = tested on: CAKI-1
[6] = tested on: CCRF-CEM
[7] = tested on: COLO 205
[8] = tested on: DLD-1
[9] = tested on: DMS-114
[10] = tested on: DMS-273
[11] = tested on: EKVX
[12] = tested on: HCC 2998
[13] = tested on: HCT-116
[14] = tested on: HL-60
[15] = tested on: HOP-62
[16] = tested on: HOP-92
[17] = tested on: K562
[18] = tested on: KM-20L2
[19] = tested on: KM12
[20] = tested on: LOX IMVI
[21] = tested on: LXFL 529
[22] = tested on: M14
[23] = tested on: M19-MEL
[24] = tested on: MOLT-4
[25] = tested on: NCI-H23
[26] = tested on: NCI-H460
[27] = tested on: NCI-H522
[28] = tested on: OVCAR-3
[29] = tested on: OVCAR-4
[30] = tested on: OVCAR-8
[31] = tested on: RPMI-8226
[32] = tested on: RXF 393
[33] = tested on: SF-268
[34] = tested on: SF-295
[35] = tested on: SF-539
[36] = tested on: SK-MEL-28
[37] = tested on: SK-MEL-5
[38] = tested on: SK-OV-3
[39] = tested on: SN12C
[40] = tested on: SNB-19
[41] = tested on: SNB-75
[42] = tested on: SNB-78
[43] = tested on: SR
[44] = tested on: SW-620
[45] = tested on: TK-10
[46] = tested on: U-251
[47] = tested on: UACC-257
[48] = tested on: UACC-62
[49] = tested on: UO-31
[50] = tested on: HCT-15
[51] = tested on: HT-29
[52] = tested on: IGROV-1
[53] = tested on: OVCAR-5
[54] = tested on: SK-MEL-2

## Cc1cc(C)n(CCNCCn2nc(C)cc2C)n1
[1]
  GI50: > 100 µM (inactive)
[2]
  GI50: > 100 µM (inactive)
[3]
  GI50: > 100 µM (inactive)
[4]
  GI50: > 100 µM (inactive)
[5]
  GI50: > 100 µM (inactive)
[6]
  GI50: > 100 µM (inactive)
[7]
  GI50: > 100 µM (inactive)
[8]
  GI50: > 100 µM (inactive)
[9]
  GI50: > 100 µM (inactive)
[10]
  GI50: > 100 µM (inactive)
[11]
  GI50: > 100 µM (inactive)
[12]
  GI50: > 100 µM (inactive)
[13]
  GI50: > 100 µM (inactive)
[14]
  GI50: > 100 µM (inactive)
[15]
  GI50: > 100 µM (inactive)
[16]
  GI50: > 100 µM (inactive)
[17]
  GI50: > 100 µM (inactive)
[18]
  GI50: > 100 µM (inactive)
[19]
  GI50: > 100 µM (inactive)
[20]
  GI50: > 100 µM (inactive)
[21]
  GI50: > 100 µM (inactive)
[22]
  GI50: > 100 µM (inactive)
[23]
  GI50: > 100 µM (inactive)
[24]
  GI50: > 100 µM (inactive)
[25]
  GI50: > 100 µM (inactive)
[26]
  GI50: > 100 µM (inactive)
[27]
  GI50: > 100 µM (inactive)
[28]
  GI50: > 100 µM (inactive)
[29]
  GI50: > 100 µM (inactive)
[30]
  GI50: > 100 µM (inactive)
[31]
  GI50: > 100 µM (inactive)
[32]
  GI50: > 100 µM (inactive)
[33]
  GI50: > 100 µM (inactive)
[34]
  GI50: > 100 µM (inactive)
[35]
  GI50: > 100 µM (inactive)
[36]
  GI50: 91 µM (inactive)
[37]
  GI50: > 100 µM (inactive)
[38]
  GI50: > 100 µM (inactive)
[39]
  GI50: > 100 µM (inactive)
[40]
  GI50: > 100 µM (inactive)
[41]
  GI50: > 100 µM (inactive)
[42]
  GI50: > 100 µM (inactive)
[43]
  GI50: > 100 µM (inactive)
[44]
  GI50: > 100 µM (inactive)
[45]
  GI50: > 100 µM (inactive)
[46]
  GI50: > 100 µM (inactive)
[47]
  GI50: > 100 µM (inactive)
[48]
  GI50: > 100 µM (inactive)
[49]
  GI50: > 100 µM (inactive)

## CCNC(=O)O/N=C1/C=C2CC[C@@H]3C(CC[C@@]4(C)C3CC[C@@H]4OC(=O)NCC)[C@@]2(C)CC1 (stereo partly drawn)
[1]
  GI50: 3.23 µM (inactive)
[2]
  GI50: > 100 µM (inactive)
[3]
  GI50: 3.98 µM (inactive)
[4]
  GI50: 2.75 µM (inactive)
[5]
  GI50: 4.26 µM (inactive)
[7]
  GI50: 2.44 µM (inactive)
[8]
  GI50: 5.9 µM (inactive)
[9]
  GI50: 1.66 µM (inactive)
[10]
  GI50: 1.99 µM (inactive)
[11]
  GI50: 4.99 µM (inactive)
[12]
  GI50: 4.3 µM (inactive)
[13]
  GI50: 3.67 µM (inactive)
[50]
  GI50: 2.77 µM
[15]
  GI50: 11.4 µM (inactive)
[16]
  GI50: 4.43 µM (inactive)
[51]
  GI50: 3.27 µM (inactive)
[52]
  GI50: 7.5 µM (inactive)
[17]
  GI50: 2.87 µM (inactive)
[18]
  GI50: 2.28 µM (inactive)
[19]
  GI50: 2.54 µM (inactive)
[20]
  GI50: 3.32 µM (inactive)
[21]
  GI50: 1.79 µM (inactive)
[22]
  GI50: 2.96 µM (inactive)
[23]
  GI50: 3.13 µM (inactive)
[24]
  GI50: 2.36 µM (inactive)
[25]
  GI50: 3.07 µM (inactive)
[26]
  GI50: 3.46 µM (inactive)
[27]
  GI50: 1.95 µM (inactive)
[29]
  GI50: 2.47 µM (inactive)
[53]
  GI50: 6.78 µM (inactive)
[30]
  GI50: 4.32 µM (inactive)
[31]
  GI50: 2.52 µM (inactive)
[32]
  GI50: 1.62 µM (inactive)
[34]
  GI50: 2.41 µM (inactive)
[35]
  GI50: 4.32 µM (inactive)
[36]
  GI50: 3.32 µM (inactive)
[54]
  GI50: 2.21 µM (inactive)
[37]
  GI50: 3.44 µM (inactive)
[38]
  GI50: 3.68 µM (inactive)
[39]
  GI50: 4.28 µM (inactive)
[40]
  GI50: 2.48 µM (inactive)
[41]
  GI50: 2.09 µM (inactive)
[42]
  GI50: 2.67 µM (inactive)
[44]
  GI50: 3.02 µM (inactive)
[45]
  GI50: 2.56 µM (inactive)
[46]
  GI50: 2.42 µM (inactive)
[47]
  GI50: 2.24 µM (inactive)
[48]
  GI50: 2.67 µM (inactive)
[49]
  GI50: 1.78 µM (inactive)
